Test results reported in patent US10011813B2, “Methane oxidation methods and compositions” (California Institute of Technology, priority 2015, dated 2018).
In brackets after ≈: the same amount, converted by molar mass. Several values for one entry are separate records, joined by “and”; a condition that tells them apart may be missing. Identical values can stand only once. Marks after values point to notes of the source that are not given here.

What was measured:
[1] = test system: methane seep sediment (ANME archaea); test: AOM rate measurement via 13C-methane (newly formed DIC) in methane seep sediment incubations; type: cell-based, ANME-2a and ANME-2c
Text: General description of methane oxidation measurements via ^13C-methane. Methane oxidation was quantified by determining the production of inorganic carbon (“CO2”). Accurate quantification of the concentration of inorganic carbon formed from methane oxidation is challenging due to 4 main reasons:
A defined amount of added DIC in artificial, buffered seawater was used with a low calcium concentration to prevent carbonate precipitation (see medium composition). As ^13CH4 was the only ^13C-enriched carbon source added, the newly formed ^13C-DIC must be derived from methane. For low methane oxidation rates (less than ca. 5% relative to sulfate as the oxidant or electron acceptor), however, enzyme-catalyzed isotope exchange between methane and DIC, needs to be taken into account, because it contributes to ^13C enrichment of the DIC without net methane oxidation, resulting in an overestimation of net methane oxidation. […] Details of both methods, the ^13CH4 experiments and the standard addition are described herein.
Incubation conditions for AOM rate measurement. Each incubation vial was set up with 1.0 cm^3 wet sediment (wet sediment=volume of sediment after allowing the sediment slurry settle for 48 h) in total slurry volume of […] as follows: Sterile serum vials were closed with butyl rubber stoppers (volume=12.9 ml after closing) and flushed with methane. 1.0 mL ^13CH4 (99% ^13C, Cambridge Isotope Laboratories, containing 0.05 vol % ^13CO2 as an impurity) was introduced anaerobically. 2.0 mL of artificial, anaerobic seawater containing 2.5× the target concentration of the corresponding electron acceptor was injected into the serum vial cooled on ice. For AQDS and 1,5-AQDS, this was a suspension corresponding to 25 mM (see TABLE 3).
The 1 L pyrex bottle with the sediment in the sulfate-free medium (1 part wet sediment in 3 parts of slurry volume) was vigorously shaken each time and 3.0 mL of slurry immediately removed and injected into the individual serum bottles. Each stoppered serum vial was supplemented with unlabeled methane (0.250 MPa overpressure: pressure gauge SSI Technologies, Inc., Media Gauge™) shaken and stored inverted at 4° C. (final headspace: 0.35 MPa methane, with ca. 4% ^13CH4). The exact fractional abundance of ^13C in the methane was quantified via ^1H-NMR spectroscopy for individual incubations.
AOM rate measurements (quantification of newly formed DIC based on ^13CH4). For ^13C-DIC analysis, 0.25 mL of the medium above the settled sediment in the microcosm was sampled with a disposable needle and syringe at each time point (same intervals for all experiments) and centrifuged (16000 rcf, 5 min). The supernatant was transferred into 0.6 mL eppendorf tubes, flash frozen in N2 (l), and stored at −20° C. until measurement. 150 μL of the thawed supernatant was then added to He-flushed vials containing 100 μL H3PO4 (85%). The resulting CO2 was analyzed for the isotopic enrichment (^13F(tn)) on a GC-IR-MS GasBench II (Thermo Scientific). The amount of DIC newly formed (Δ[DIC](tn), see FIG. 6B) was calculated from the measured ^13F (fractional abundance of ^13C), neglecting isotope effects on AOM according to Equation (1): Δ[DIC](tn)=[DIC](t0)*(^13F(tn)−^13F(t0))/(^13F(CH4)−^13F(tn)) (EQ. 1)

[2] = Quantification of AQDS solubility in the incubation medium; type: physicochemical
Method: Quantification of AQDS solubility in the incubation medium. Different regioisomers of AQDS (1,5-AQDS, 2,6-AQDS and 2,7-AQDS) were separately added to the modified artificial seawater described above, to a targeted final concentration of 25 mM. The suspensions were ultra-sonicated at room temperature to dissolve as much of the AQDS as possible. The tubes were kept at 4° C. or at 22.5° C. overnight. The tubes were centrifuged at 4° C. or 22.5° C. (16000 rcf, 30 min). The supernatant (300 μL) was mixed with 300 μL acetate (10.0 mM) as the internal standard and 100 μL deuterated water (99.9% D, Cambridge Isotope Laboratories) was added. The concentration of AQDS was obtained from integration of the ^1H-NMR spectra by comparison relative to the acetate standard.

ANME-SRB consortia = test: FISH-nanoSIMS 15N incorporation (anabolic activity) of ANME-SRB consortia; type: cell-based, ANME-2c archaea and Desulfobacteraceae
Method: Incubations for FISH-nanoSIMS and RNA analysis. For AOM incubations with sulfate or AQDS that were used for nanoSIMS (FIG. 7 and FIG. 8A) and RNA analysis (FIG. 6), incubations experiments were set up following the AOM-rate measurements described above (initially containing 1.0 mM ammonium without ^15N label). Methane oxidation rates were tracked in these incubations via the ^13C label. After 11 days, ca. 3.5 mL of supernatant remained in the serum bottles to which 3.0 mL artificial seawater without ammonium containing either 25 mM AQDS, 28 mM sulfate, or no oxidant or electron acceptor was added. Next, 0.1 mL ^15NH4^+ (100 mM) was injected to yield about 2.0 mM ammonium with ca. 75% ^15N. Methane oxidation was monitored. After additional 8 days, the medium of the AQDS incubations was exchanged by 5.0 mL new medium containing 25 mM AQDS and 2.0 mM ^15NH4^+. Now the AQDS incubations contained ca. 95% ^15NH4^+ in the ammonium pool. The cultures were incubated for additional 10 days before harvest. Total incubation time with labeled ammonium: 18 days. Average labeling strength: ca. 75% for sulfate and no oxidant or electron acceptor control; ca. 86% for the AQDS incubations.
For the second independent set of experiments with iron citrate, humic acids and sulfate (FIG. 8B), the medium contained 1.0 mM ammonium with ca. 40% ^15N label throughout the incubation period. These experiments were carried out from identical incubations that were for the AOM rate measurements (highlighted in Table 4). In regards to Table 4, the percentage AOM rates are reported relative to sulfate-coupled AOM (1.50 μmol cm^−3 day^−1). Top: Summary of compounds described in FIG. 1B; Bottom: Oxidants or electron acceptors resulting in an AOM rate less than 0.10 μmol […] day^−1 (<7% rel. to sulfate as oxidant or electron acceptor).
Sampling for FISH-nanoSIMS and RNA. After an 18-day incubation in the presence of ^15NH4^+, each incubation was shaken to suspend the sediment and 1.0 mL sediment slurry was sampled using a disposable sterile needle and syringe (ca. 0.3 mL wet sediment). […]
Sample preparation for aggregate embedding, sectioning, FISH, and nanoSIMS. […] Sections of ca. 1 μm thickness were cut and stretched on a water droplet on a polylysine coated slide with teflon wells (Tekdon Inc) and analyzed by fluorescence in situ hybridization (FISH). […]
FISH conditions and probes. The FISH hybridization on thin sections of resin embedded microbial aggregates followed the recently optimized protocol described in S. E. McGlynn et al. The phylogenetic identity of microorganisms in the thin sections were determined using conventional FISH using oligonucleotide probes fluorescently labeled on both the 5′ and 3′ ends (dual labeled) as outlined herein. […]

[3] = test system: methane seep sediment (ANME archaea); test: Quantification of sulfide (methylene blue method) in AOM incubations; type: cell-based, ANME-2a and ANME-2c; details: Sulfate 28 mM, after 21-day incubation
Method: Quantification of sulfide. Supernatant was removed via syringe and centrifuged in 0.6 mL Eppendorf tubes (16000 rcf, 30 s). 20 μL of the clear supernatant was removed and added to 400 μL Zn(OAc)2 (500 mM) to preserve the sulfide. Analysis was carried out in triplicate via the methylene blue method described in J. D. Clin (Waters. Limnol. Oceanogr. 14:454 (1969)), using standards of 0.1, 0.25, 0.5, 1, 2, 5, 10 and 25 mM sulfide added to Zn(OAc)2 (500 mM) in the same ratios as for the samples. Quantification was carried out in a plate reader (TECAN Sunrise™) by monitoring the absorbance at 670 nm.

Question: For 1-Hydroxynaphthoquinone, which “Rate relative to AOM with sulfate” value ([1]; 10 mM, 1 mM, no MoO4^2−) is on record?
Answer: The value was ≤1.5 ^† %.

Question: Which “Rate relative to AOM with sulfate” value ([1]; 10 mM, no MoO4^2−) does the source give for `O=C1c2cccc(S(=O)(=O)O)c2C(=O)c2cccc(S(=O)(=O)O)c21` [1,5-AQDS, 9,10-anthraquinone-1,5-disulfonate] here?
Answer: The value was 38%.

Question: What about the “Solubility in the incubation medium” value ([2]; 4° C.) of the same compound?
Answer: The value was 2.5 mM (≈ 921 µg/mL).

Question: For `O=C1c2ccc(S(=O)(=O)O)cc2C(=O)c2cc(S(=O)(=O)O)ccc21` [2,7-AQDS, 9,10-anthraquinone-2,7-disulfonate], which “Rate relative to AOM with sulfate” value ([1]; 10 mM, no MoO4^2−) is on record?
Answer: The value was 97%.

Question: And the “Solubility in the incubation medium” value ([2]; 4° C.)?
Answer: Its value is over 25 mM.

Question: And the “Solubility in the incubation medium” value ([2]; 22.5° C.)?
Answer: Its value is over 25 mM.

Question: For `O=C([O-])CN(CCN(CC(=O)[O-])CC(=O)[O-])CC(=O)[O-].[Fe+3]` [Fe(III)-EDTA], which “Rate relative to AOM with sulfate” value ([1]; 1.6 mM, no MoO4^2−) is on record?
Answer: The value was 8%.

Question: And the “Rate relative to AOM with sulfate” value ([1]; 10 mM, no MoO4^2−)?
Answer: The value was ≤1.5 ^† %.

Question: Which results are given for `O=C([O-])CN(CC(=O)[O-])CC(=O)[O-].[Fe+3]` [Fe(III)-NTA]?
Answer: Rate relative to AOM with sulfate ([1]; 1 mM, no MoO4^2−): 2.5%; Rate relative to AOM with sulfate ([1]; 10 mM, no MoO4^2−): ≤1.5 ^† %

Question: What does the source list for `O=C([O-])CC(O)(CC(=O)[O-])C(=O)[O-].[Fe+3]` [Fe(III)-citrate]?
Answer: AOM consortia anabolically active (>10% archaeal activity relative to sulfate treatments, or >0.8 at % 15N) (ANME-SRB consortia; second set of experiments, ca. 40% 15N): 14 out of 31; Rate relative to AOM with sulfate ([1]; 2 mM, with 25 mM MoO4^2−): 7%; Rate relative to AOM with sulfate ([1]; 5 mM, with 25 mM MoO4^2−): 37%; Rate relative to AOM with sulfate ([1]; 10 mM, no MoO4^2−): 53%; Rate relative to AOM with sulfate ([1]; 10 mM, with 25 mM MoO4^2−): 46%; Rate relative to AOM with sulfate ([1]; 25 mM, with 25 mM MoO4^2−): 2.5%

Question: With `O=C1C(=C2Nc3c(cc(S(=O)(=O)O)cc3S(=O)(=O)O)C2=O)Nc2c1cc(S(=O)(=O)O)cc2S(=O)(=O)O` [Indigo tetrasulfonate] as the compound, how does the “Rate relative to AOM with sulfate” value ([1]; 10 mM, 1 mM, no MoO4^2−) read?
Answer: Its value is ≤1.5 ^† %.

Question: Which “Rate relative to AOM with sulfate” value ([1]; 1 mM, no MoO4^2−) does the source give for `CN(C)c1ccc2nc3ccc(=[N+](C)C)cc-3sc2c1` [Methylene blue] here?
Answer: Its value is ≤1.5 ^† %.

Question: With `COS(=O)(=O)[O-].C[n+]1c2ccccc2nc2ccccc21` [Phenazine methosulfate] as the compound, how does the “Rate relative to AOM with sulfate” value ([1]; 1 mM, no MoO4^2−) read?
Answer: The value was ≤1.5 ^† %.

Question: For `Nc1ccc2nc3ccc(N)cc3[n+](-c3ccccc3)c2c1` [Phenosafranine], which “Rate relative to AOM with sulfate” value ([1]; 10 mM, 1.6 mM, no MoO4^2−) is on record?
Answer: Its value is ≤1.5 ^† %.

Question: For `O=c1ccc2[n+]([O-])c3ccc(O)cc3oc-2c1` [Resazurin], which “Rate relative to AOM with sulfate” value ([1]; 10 mM, no MoO4^2−) is on record?
Answer: Its value is ≤1.5 ^† %.

Question: With `Cc1cc2nc3cc(C)c(N)cc3[n+](-c3ccccc3)c2cc1N.[Cl-]` [Safranine T] as the compound, how does the “Rate relative to AOM with sulfate” value ([1]; 10 mM, 1.6 mM, no MoO4^2−) read?
Answer: Its value is ≤1.5 ^† %.

Question: With `O=S(=O)(O)O` [Sulfate] as the compound, how does the “doubling time of ANME cells based on average 15N-incorporation” value (ANME-SRB consortia; 18 days with 15NH4+) read?
Answer: The value was 2.9 months.

Question: And the “Rate relative to AOM with sulfate” value ([1]; 28 mM, no MoO4^2−, 100% = 1.50 μmol cm^−3 day^−1)?
Answer: Its value is 100%.

Question: What about the “Rate relative to AOM with sulfate” value ([1]; 28 mM, with 25 mM MoO4^2−) of the same compound?
Answer: Its value is 20%.

Question: What about the DIC formed ([1]; Sulfate 28 mM, after 21-day incubation) of the same compound?
Answer: Its DIC formed is 6.44 mM and 7.77 mM and 7.51 mM and 7.29 mM.

Question: And the “sulfate-coupled AOM rate” value ([1]; reference rate (100%) of Table 4)?
Answer: Its value is 1.50 μmol cm^−3 day^−1.

Question: And the AOM rate ([1]; sediment characterization)?
Answer: The AOM rate was 1.5 μmol methane (cm^3 wet sediment)^−1 d^−1.

Question: What about the “sulfide (sum of HS^− and H2S), final concentration” value [3] of the same compound?
Answer: The value was 5.9 mM and 6.5 mM and 7.0 mM and 6.1 mM.

Question: With `[Na+].[Na+].[O]=[Mo](=[O])([O-])[O-]` [molybdate, sodium molybdate] as the compound, how does the “effect on methane oxidation in sulfate-free incubations containing AQDS” value ([1]; 25 mM molybdate, AQDS 10 mM) read?
Answer: Its value is “no inhibitory response”.

Question: What about the “effect on rates of sulfate-coupled AOM relative to controls” value ([1]; 25 mM molybdate, sulfate 28 mM) of the same compound?
Answer: The value was “decreased by approximately fivefold”.
